Laboratory results taken from US11149014B2, “Method for treating pain or associated condition or symptom” (priority 2014, dated 2021).
Several values for one entry are separate records, joined by “and”; a condition that tells them apart may be missing. Equal entries are not always repeated. Structures can show the parent of a compound that is named as a salt.

What was measured:
Female sabra mice = test: Forced swimming test (FST) for depressive effect; type: in vivo; settings: for moment/kicking per minute score, Mean: mean of last 4 min
Procedure: To find out whether HU436 has depressive effects on mice behavior—a forced swimming test (FST) was adopted.
Female sabra mice 6-8 weeks old were employed. Measurement of locomotor activity in mice movements were counted for 6 minutes.
Forced Swimming test (FST): The forced swimming test employed was essential similar to that described in ((Pettit-Demoulier et al, (2005) Psychopharmacology 177:245-255;)
Mice were dropped individually into a glass aquarium (height […], diameter 10 cm) containing 10 cm of water and their activity was monitored for 6 minutes. Of the total 6 minutes only the last 4 minutes was recorded—the first 2 minutes were considered as time for habitation.
The mice were treated either with 5 mg/kg or 10 mg/kg of HU436 (ip). Mice were scored at 10 minutes 90 minutes or 180 minutes after administration. In addition to mice treated with vehicle as control, 1 mice was injected ip with 5 mg/kg CBD and scored 10 minutes later. The movements/kicking of the mice were counted and the data are presented in the attached Table 1.

Sabra mice [1] = test: Zymosan-induced hind paw swelling (inflammation), caliper; type: in vivo
TNFα = TNFα levels in sera of zymosan-injected Sabra mice (Elisa); type: in vivo; settings: 24 hrs after application
Procedure: (§1) Activity of HU-436 given orally were assayed in Sabra mice. Zymosan injected to mice left hind paw, induced inflammation, TNF (tumor necrosis factor) in the serum as well as pain. During 24 h, the inflammatory paw swelling response was assayed by caliper, whereas the pain in the hind paw, was determined by Von Frey monofiber instrument.
(§2) Sabra female, mice 6-7 weeks old, were employed. Zymosan 0.6 mgr in 40 micro-liters was injected into the left hind paw. Immediately thereafter 20 30, 50 or 100 mg/kg HU436 dissolved in olive oil, in 200 μl—was given orally. Two, six and twenty-four hours thereafter, the injected left hind paw of the mice (total 5-8 mice/treatment), were examined both for swelling (Inflammation) and pain (Von Frey). The levels of TNFα in the sera of Sabra mice were determined by Elisa, 24 hrs after HU-436 application.

Raw 264.7 cells = test: Reactive oxygen intermediate (ROI) production by Raw 264.7 macrophages (luminol/zymosan chemiluminescence); type: cell-based, mice; settings: Mus musculus, RAW264.7, read-out: inhibition of ROI generation
Procedure: (§3) Raw 264.7 cells, a monocytic-macrophage cell line derived from BALB/c mice, were obtained from American Type Culture collection (Rockville, Md.). The cells were cultured in Dulbecco's modified Eagle medium (DMEM) supplemented with 5% fetal calf serum (FCS) and sodium pyrovate, glutamine, and antibiotics. For activation, the cells were incubated with LPS (E. coli 1 μg/mL for 24 h, Sigma, Israel). These cells were applied for ROI and Nitric Oxide (NO) generation in-vitro.
Raw 264.7 cells were removed using a scrapper, washed, and re-suspended in Hanks balanced salt solution (without phenol red). For measurement of chemiluminescence, two luminometer tubes were each loaded with: 0.5 mL of cell suspension (5×10^5 cells), HU-436 (two separate doses in each tube of 40 μg/ml and 60 μg/ml), 10 μL luminol (Sigma) and 30 μL of zymosan (Sigma). The chemiluminescence in each tube was measured immediately thereafter by a luminometer (Biolumate LB 95, Berhold, Wilbad, Germany)

RAW 264.7 macrophages = test: Nitric oxide (NO) production by LPS-activated RAW 264.7 macrophages (Griess); type: cell-based, mice; settings: Mus musculus, RAW264.7; 60 μg/ml; LPS 1 μg/mL, 24 h
Procedure: as §3
RAW 264.7 macrophages were treated with various doses (1-60 μg/ml) of HU-436 followed the addition of 1 μg/mL of lipopolysaccharide (LPS, E. coli, Sigma) for activation. The macrophages were then cultivated in a humid atmosphere with 5% CO2 for 24 h. NO generation was determined by measuring the nitrite accumulated in the supernatants (100 μL) of the HU-436-treated macrophages as follows: An equal volume (100 μL) of Griess reagent (1% sulfanilamide, 0.1% naphthalene diamine HCl, 2% H3PO4) was added to each supernatant. Following 10 min of incubation at room temperature, the color production was measured at 550 nm with an ELISA reader. The concentration of nitrite was calculated according to a standard curve. The results are presented in FIG. 1 wherein inhibition of more than 50% was found fallowing incubation of the cells with 60 μg/ml HU-436.

TNF-α = TNF-α in supernatants of TG macrophages treated with LPS (ELISA); type: cell-based, mice; settings: Mus musculus, Macrophage, 40 μg/ml, read-out: inhibition in TNF production
Procedure: Peritoneal cells were harvested from C57BL/6 female mice 4 days after intra-peritoneal injection of 1.5 mL of 3% thioglycollate medium (Difco). The cells (TG macrophages) were washed with phosphate-buffered saline, re-suspended in Dulbecco's modified Eagle medium (DMEM) supplemented with 5% fetal calf serum (FCS), and plated (1.2×10^5) in 96-microwell flat-bottom plates (Nunc, Roskide, Denmark). Following 2-3 h incubation at 37° C., the non-adherent cells were removed by intensive rinsing. About 95% of the adherent cells were macrophages. These cells were applied for studying TNF production in-vitro.
TNF-α in the supernatants of TG macrophages treated with HU-436 (doses of […]) and LPS was determined by ELISA (R&D) with Ab pairs from Biosource (Camarillo, Calif.). Procedures were carried out following the manufacturer's instructions.

TNF = TNF level in serum of C57BL mice injected with LPS; type: in vivo; settings: 30 mg/Kg injected together with LPS; 90 min after injection
Procedure: Three doses of HU-436 (10 mg/Kg, 20 mg/Kg and 30 mg/Kg) were each injected to three C57BL mice together with LPS. Ninety min fallowing the injections, the mice were bled and the TNF levels in the serum were determined.

C57BL = test: Preliminary toxicological studies in C57BL; type: in vivo, mice
[2] = Weight loss Study 1: body weight of DBA/1 male mice injected Type II collagen for CIA; type: in vivo; settings: 5 mg/Kg intra-peritoneal for 16 days from day 18; 34 days
Procedure: DBA/1 male mice (6 weeks old, 20 gram, 15 mice/group) were injected Type II collagen for CIA. On day 18, the mice were injected (intra-peritoneal) with the following doses, for 16 days:
Vehicle: ethanol: chremophor: saline (1:1:18)
Methrotrexate (MTX): 0.5 mg/Kg.
In addition, a control group (wherein no dose was given) was monitored for comparison. The changes in body weight (in grams) was measured daily for a period of 34 days from injection. FIG. 4 (days 18-34) and FIG. 5 (overall change from day 1 to 34), show the changes in body weight of mice over a period of 34 days from injection.

[3] = Weight loss Study 2: weight change of normal Sabra mice; type: in vivo; settings: 5 mg/Kg intra-peritoneal; 15 and 24 days
Procedure: Normal Sabra (mice 9-10 weeks old, about 32 gram, 7 mice/group) were injected (intra-peritoneal) with two doses of HU-436 (5 mg/Kg and 10 mg/Kg). The change in weight of mice was measured daily for 15 (FIG. 6) and 24 days (FIG. 7) from injection. In addition, a control group (wherein no dose was given) was monitored for comparison.

[4] = Weight loss Study 3: weight gain and food consumption of C57BL/6 mice; type: in vivo; settings: for food consumption: after 1-3 weeks; for reduction in weight gain compared to the control group: three weeks
Procedure: C57BL/6 mice (8-9 weeks old, 16 gram, 5 mice/group) were injected (intra-peritoneal) with two doses of HU-436 (5 mg/Kg and 10 mg/Kg). The change in weight of mice was measured weekly for three weeks (FIGS. 8 and 9) from injection. In addition, a control group (wherein no dose was given) was monitored for comparison.

Sabra mice [5] = test: Zymosan-induced hind paw pain, Von Frey monofiber instrument; type: in vivo; settings: for pain reduction: 2, 6, 24 h
Procedure: as §1, §2
Pain, was assayed by employing Von-Frey monofiber instrument. The higher the log value measured, the more force (g) one has to apply to cause pain=higher analgesia is being expressed=less pain.

[6] = 5 mg/kg, 10 min after ip, minute 3 in tank
[7] = 5 mg/kg, 10 min after ip, minute 4 in tank
[8] = 5 mg/kg, 10 min after ip, minute 5 in tank
[9] = 5 mg/kg, 10 min after ip, minute 6 in tank

C=C(C)[C@@H]1CCC(C)=C[C@H]1c1c(O)cc(CCCCC)cc1O [CBD, Cannabidiol, reference compound]
moment/kicking per minute score, Mean (Female sabra mice; 5 mg/kg, 10 min after ip): 65 per minute
moment/kicking per minute score (Female sabra mice; [6]): 76 per minute
moment/kicking per minute score (Female sabra mice; [7]): 75 per minute
moment/kicking per minute score (Female sabra mice; [8]): 48 per minute
moment/kicking per minute score (Female sabra mice; [9]): 60 per minute
potency in reducing inflammation relative to HU-436 (Sabra mice [1]; all experiments): scientifically more potent than HU-436 in reducing inflammation
reduction of TNFα levels in the sera (TNFα): 48-58%

C=C(C)C1CCC(C)=CC1c1c(OC)cc(CCCCC)cc1OC(=O)CCN1CCOCC1 [HU-436, Maleate Salt of 3-methoxy-2-((6R)-3-methyl-6-(prop-l-en-2-yl)cyclohex-2-enyl)-5-pentylphenyl 3-morpholinopropanoate]
inhibition at 40 µg/mL (Raw 264.7 cells; 40 μg/ml): 20%
inhibition at 60 µg/mL (Raw 264.7 cells; 60 μg/ml): 28%
inhibition at 60 µg/mL (RAW 264.7 macrophages): > 50%
inhibition at 40 µg/mL (TNF-α): > 60%
inhibition in TNF level in the serum (TNF): 46%
toxicity (C57BL; 50 mg/Kg): non-toxic
toxicity (C57BL; 100 mg/Kg): non-toxic
reduction of body weight (weight gain of control group = 100% gain) [2]: up to 61%
changes in weight gain [3]: significantly decreased the changes in weight gain
food consumption ([4]; 5 mg/Kg intra-peritoneal): reduction in food consumption
reduction in weight gain compared to the control group ([4]; 5 mg/Kg intra-peritoneal): about 50%
food consumption ([4]; 10 mg/Kg intra-peritoneal): reduction in food consumption
reduction in weight gain compared to the control group ([4]; 10 mg/Kg intra-peritoneal): about 50%
moment/kicking per minute score, Mean (Female sabra mice; 5 mg/kg, 10 min after ip): 81 per minute
moment/kicking per minute score (Female sabra mice; [6]): 84 per minute
moment/kicking per minute score (Female sabra mice; [7]): 96 per minute
moment/kicking per minute score (Female sabra mice; [8]): 76 per minute
moment/kicking per minute score (Female sabra mice; [9]): 68 per minute
moment/kicking per minute score, Mean (Female sabra mice; 5 mg/kg, 90 min after ip): 75 per minute
moment/kicking per minute score (Female sabra mice; 5 mg/kg, 90 min after ip, minute 3 in tank): 70 per minute
moment/kicking per minute score (Female sabra mice; 5 mg/kg, 90 min after ip, minute 4 in tank): 85 per minute
moment/kicking per minute score (Female sabra mice; 5 mg/kg, 90 min after ip, minute 5 in tank): 72 per minute
moment/kicking per minute score (Female sabra mice; 5 mg/kg, 90 min after ip, minute 6 in tank): 73 per minute
moment/kicking per minute score, Mean (Female sabra mice; 10 mg/kg, 10 min after ip): 75 per minute
moment/kicking per minute score (Female sabra mice; 10 mg/kg, 10 min after ip, minute 3 in tank): 80 per minute
moment/kicking per minute score (Female sabra mice; 10 mg/kg, 10 min after ip, minute 4 in tank): 84 per minute
moment/kicking per minute score (Female sabra mice; 10 mg/kg, 10 min after ip, minute 5 in tank): 64 per minute
moment/kicking per minute score (Female sabra mice; 10 mg/kg, 10 min after ip, minute 6 in tank): 72 per minute
moment/kicking per minute score, Mean (Female sabra mice; 10 mg/kg, 180 min after ip): 77 per minute
moment/kicking per minute score (Female sabra mice; 10 mg/kg, 180 min after ip, minute 3 in tank): 76 per minute
moment/kicking per minute score (Female sabra mice; 10 mg/kg, 180 min after ip, minute 4 in tank): 52 per minute
moment/kicking per minute score (Female sabra mice; 10 mg/kg, 180 min after ip, minute 5 in tank): 90 per minute
moment/kicking per minute score (Female sabra mice; 10 mg/kg, 180 min after ip, minute 6 in tank): 90 per minute
moment/kicking per minute score, Mean (Female sabra mice; 10 mg/kg, time after ip not given): 81 per minute and 83 per minute
moment/kicking per minute score (Female sabra mice; 10 mg/kg, time after ip not given, minute 3 in tank): 79 per minute and 74 per minute
moment/kicking per minute score (Female sabra mice; 10 mg/kg, time after ip not given, minute 4 in tank): 80 per minute and 64 per minute
moment/kicking per minute score (Female sabra mice; 10 mg/kg, time after ip not given, minute 5 in tank): 89 per minute and 112 per minute
moment/kicking per minute score (Female sabra mice; 10 mg/kg, time after ip not given, minute 6 in tank): 76 per minute and 83 per minute
depressive activity (Female sabra mice; 5 or 10 mg/kg ip): did not cause depressive activity
inflammatory response (swelling) compared to controls (Sabra mice [1]; 20 mg/kg ip injection): reduction in inflammatory response (swelling) was observed compared to controls
inflammation compared to the controls (Sabra mice [1]; 30 mg/kg given orally): reduced inflammation compared to the controls
inflammation compared to the controls (Sabra mice [1]; 50 mg/kg given orally): reduced inflammation compared to the controls
anti-inflammation properties (Sabra mice [1]; conclusion): moderate anti-inflammation properties
reduction of TNFα levels in the sera (TNFα): up to 20%
pain reduction (Sabra mice [5]; 20 mg/kg given orally): marked pain reduction
pain reduction (Sabra mice [5]; 30 mg/kg given orally): marked pain reduction
pain reduction (Sabra mice [5]; 50 mg/kg given orally): marked pain reduction
pain reduction compared to Tremadol (5 mg/kg intra-peritoneally) (Sabra mice [5]; 50 mg/kg, after 24 hr): more potent after 24 hr than Tremadol
pain reduction (Sabra mice [5]; 100 mg/kg given orally): marked pain reduction
pain reduction compared to Aspirin (Sabra mice [5]; HU-436 30 or 50 mg/kg vs Aspirin 50 (and 100) mg/kg, 24 hr): the most potent in reducing pain for 24 hr
long lasting pain reduction compared to Cannabidiol, Aspirin (Sabra mice [5]; conclusion): more effective than Cannabidiol, Aspirin in reducing long lasting pain
